In patent publication EP0256909B1, “N,N-bis-(4-fluorophenyl) carbamoyl acetohydroxamic acid and pharmaceutical composition containing it” (priority 1986, dated 1988):
“Also recorded” adds a separate entry of the source.

Key:
souris [1] = test: Pretoxicity (3 mice per dose); details: intraperitoneal, mouse
Description: (§1) Le CRL 41131, en suspension dans une solution de gomme arabique à 5%, a été administré par voie intrapéritonéale sous un volume de 20 ml/kg chez la souris (mâle, NMRI, Evic Ceba) et de 5 ml/kg chez le rat (mâle, CD1, Sprague Dawley, Charles River).

souris [2] = test: Motility reduced by hypoxic aggression; assay type: in vivo; details: 8, 32, above all 128 et 512 mg/kg i.p., after acute hypobaric anoxia
Description: Trente minutes après avoir reçu le CRL 41131, les souris (10 par dose, 20 témoins) sont soumises à une anoxie hypobare aiguë (dépression de 600 mmHg en 90 s, détente de 45 s), puis elles sont placées en actimètre où leur motilité est enregistrée pendant 10 min.

rat [3] = test: Interaction with amphetamine; assay type: in vivo
rat [4] = test: Interaction with apomorphine, rat; assay type: in vivo; details: 64 and above all 256 mg/kg i.p., 30 min before s.c. apomorphine 0,5 mg/kg
Description: as §1
Le CRL 41131 est administré à des lots de 6 rats 30 min avant l'injection sous-cutanée de 0,5 mg/kg d'apomorphine.

souris [5] = test: in vivo; details: 24 h after administration
Description: as §1
Aussitôt après l'administration de CRL 41131, les souris groupées par lots de 10 sont placées dans des boîtes en Plexiglass (20 x 10 x 10 cm).
On note le nombre d'animaux morts, toutes les heures pendant 4 h et après 24, 48 et 72 h.
La toxicité du CRL 41131 est déterminée dans les mêmes conditions sur des lots de souris placées à raison d'une par boîte.

souris [6] = test: Asphyxic anoxia (gallamine triethiodide); assay type: in vivo; details: i.p. 30 min before gallamine triethiodide 32 mg/kg i.p.
Description: Des lots de 10 souris reçoivent le CRL 41131 30 min avant l'administration intrapéritonéale de 32 mg/kg de triiodoéthylate de gallamine.

souris [7] = test: Spontaneous motility (actimeter); assay type: in vivo
Description: Après avoir reçu le CRL 41131, les souris (6 par dose, 12 témoins) sont placées en actimètre où leur motilité est enregistrée pendant 30 min.

rat [8] = test: Global behaviour and reactivities, rat; assay type: in vivo
Description: Des lots de 3 animaux sont observés avant, puis 15 min, 30 min, 1 h, 2 h, 3 h et 24 h après l'administration de CRL 41131.

souris [9] = test: Interaction with oxotremorine; assay type: in vivo; details: mouse, oxotremorine 0,5 mg/kg i.p.
Description: Le CRL 41131 est administré à des lots de 6 souris 30 min avant l'injection intrapéritonéale de 0,5 mg/kg d'oxotrémorine.

souris [10] = test: Interaction with apomorphine, mouse; assay type: in vivo; details: compound i.p. 30 min before s.c. apomorphine 1 or 16 mg/kg
Description: as §1
Des lots de 6 souris reçoivent le CRL 41 131 30 min avant l'injection sous-cutanée d'apomorphine, à la dose de 1 ou 16 mg/kg. • a) Apomorphine 1 mg/kg • b) Apomorphine 16 ma/ka

souris [11] = test: Intergroup aggressiveness; assay type: in vivo
Description: Après avoir séjourné pendant 3 semaines dans chacune des moitiés d'une cage séparées par une cloison opaque, des groupes de 3 souris reçoivent le CRL 41131. Trente minutes plus tard, les deux groupes d'une même cage sont réunis par retrait de la cloison et on note le nombre de combats qui surviennent en 10 min.

souris [12] = test: Motility reduced by habituation to the enclosure; assay type: in vivo; details: 32, 128 et 512 mg/kg i.p.
Description: Après 18 h de séjour dans les actimètres, les souris (6 par dose, 12 témoins) reçoivent le CRL 41131. Elles sont aussitôt replacées dans leurs enceintes respectives et, 30 min plus tard, on enregistre leur motilité pendant 30 min.

souris [13] = test: Four plates test; assay type: in vivo; details: mouse, 30 min after i.p. administration
Description: as §1
Le test est pratiqué sur des lots de 10 souris, 30 min après l'administration de CRL 41131.

souris [14] = test: Electroshock test; assay type: in vivo
souris [15] = test: Behavioural despair (forced immersion); assay type: in vivo; details: 32, 128, 512 mg/kg i.p., 2nd to 6th minute
From the text: Trente min après avoir reçu le CRL 41131, des lots de 6 souris (mâles, CD1, Charles River) sont placés dans un bécher rempli d'eau sur une hauteur de 6 cm. On note la durée totale d'immobilité entre la deuxième et la sixième minute suivant l'immersion.

souris [16] = test: Interaction with reserpine; assay type: in vivo; details: 128 et 512 mg/kg i.p., mouse, 4 h after reserpine 2,5 mg/kg i.p.
Description: Quatre heures après l'injection intrapéritonéale de 2,5 mg/kg de réserpine, des lots de 6 souris reçoivent le CRL 41131.

[17] = Solubility of the powder in solvents; assay type: physicochemical
souris [18] = test: Interaction with barbital; assay type: in vivo; details: 128 et 512 mg/kg, barbital 220 mg/kg i.p.
Description: Trente minutes après l'administration de CRL 41131, des lots de 10 souris reçoivent une injection intrapéritonéale de barbital (220 mg/kg).

[19] = comparison section, no dose given

## O=C(CC(=O)N(c1ccc(F)cc1)c1ccc(F)cc1)NO [CRL 41131, acide N,N-bis-(4-fluorophényl) carbamoylacétohydroxamique]
Souris [1]; 512 mg/kg
  Prétoxicité: signes observés: sédation, crampes abdominales, diminution de la fréquence respiratoire pendant 30 min, puis excitation. A 24 h : excitation et stéréotypies
Souris [1]; 1024 mg/kg
  Prétoxicité: signes observés: sédation, crampes abdominales, diminution de la fréquence respiratoire pendant 30 min, puis excitation. A 24 h : excitation, stéréotypies et convulsions
Souris [1]; 128 et 256 mg/kg
  Prétoxicité: signes observés: à partir de 30 min : excitation; à 24 h, l'excitation est encore présente, et présence de stéréotypies
Souris [1]; 128 to 1024 mg/kg
  mortalité: Aucune mortalité
Souris [2]
  récupération motrice: amélioration de la récupération motrice
Rat [3]; 64 and above all 256 mg/kg i.p., rat, 30 min before amphetamine 2 mg/kg i.p.
  stéréotypies amphétaminiques: potentialisation importante
Rat [3]; [19]
  test à l'amphétamine: stéréotypies du rat: potentialise ces stéréotypies
Rat [4]
  stéréotypies induites par l'apomorphine: potentialisation
Souris [5]
  toxicité chez les souris groupées par rapport aux souris isolées: modérément plus toxique chez les souris groupées
Souris [6]
  délai d'apparition des convulsions consécutives à une anoxie asphyxique: ne modifie pratiquement pas
Souris [7]; 32 mg/kg i.p.
  durée de l'effet: 4 h
Souris [7]; 128 mg/kg i.p.
  durée de l'effet: 4 à 24 h
Souris [7]; 512 mg/kg i.p.
  durée de l'effet: > 24 h
Souris [7]; 512 mg/kg i.p. (highest dose), given 30 min before actimeter
  hypermotilité: l'hypermotilité est moins importante qu'à 128 mg/kg
Souris [7]; 8, 32, 128 et 512 mg/kg i.p., given 30 min before actimeter
  activité motrice spontanée: augmente modérément l'activité motrice spontanée
Souris [7]; 128 et 512 mg/kg i.p., given 2 h before actimeter
  activité motrice spontanée: cette augmentation est plus nette
Souris [7]; 128 et 512 mg/kg i.p., given 4 h before actimeter
  motilité spontanée: augmente la motilité spontanée
Souris [7]; from 8 mg/kg i.p., given 2 h before actimeter
  activité motrice spontanée: augmente l'activité motrice spontanée
Souris [7]; ip, mouse, i.p., overall conclusion, read-out: doses qui augmentent l'activité motrice spontanée
  minimal effective dose: ≥ 32 mg/kg
Souris [7]; only 512 mg/kg i.p., given 24 h before actimeter
  motilité spontanée: augmente modérément la motilité spontanée
Rat [8]; 256 mg/kg i.p.
  comportement: excitation, réaction de peur: excitation et augmentation de la réaction de peur (entre 2 h et 24 h)
Rat [8]; 256 mg/kg i.p., 24 h
  stéréotypies, réactivité au toucher: stéréotypies, augmentation de la réactivité au toucher en 24 h
Rat [8]; 4, 16 et 64 mg/kg i.p.
  comportement et réactivités: pas de modification nette du comportement et des réactivités
Souris [9]
  action hypothermisante de l'oxotrémorine (température): n'a pas d'effet; also recorded: ne modifie pas
  intensité des tremblements provoqués par l'oxotrémorine: n'a pas d'effet; also recorded: ne modifie pas
  signes de stimulation cholinergique périphérique dus à l'oxotrémorine: ne modifie pas
Souris [10]
  action hypothermisante induite par l'apomorphine: ne s'oppose pas
  comportements de verticalisation et de stéréotypies: ne sont pas modifiés
Souris [11]; 512 mg/kg i.p. (highest dose used), 30 min before, fights in 10 min
  nombre de combats: diminue nettement le nombre de combats
Souris [11]; 128 et 512 mg/kg, comparison section
  agressivité intergroupe des souris: diminution
Souris [12]
  activité motrice chez la souris habituée à son enceinte: reprise nette de l'activité motrice
Souris [13]
  nombre de passages punis: n'entraîne pas d'augmentation nette du nombre de passages punis
Souris [14]; 32, 128 et 512 mg/kg i.p., mouse, 30 min after administration
  effets létaux de l'électrochoc: aggrave modérément les effets létaux de l'électrochoc
Souris [14]; [19]
  test à l'électrochoc: aggrave les effets létaux de l'électrochoc
Souris [15]
  durée de l'immobilité: diminue la durée de l'immobilité
Souris [16]
  hypothermie réserpinique: s'oppose tardivement (24 h)
  ptôsis réserpinique: s'oppose tardivement (24 h)
[17]; alcohols, acetone, ethyl acetate
  solubilité dans les alcools, l'acétone, l'acétate d'éthyle: soluble
[17]; ether
  solubilité dans l'éther: peu soluble
[17]; isopropyl ether
  solubilité dans l'éther isopropylique: insoluble
[17]; water
  solubilité dans l'eau: insoluble
Souris [18]
  durée du sommeil barbiturique: diminue encore le sommeil; also recorded: diminue la durée du sommeil barbiturique
